In publication PMC10572855, “Phenotypic Test of Benzo[4,5]imidazo[1,2-c]pyrimidinone-Based Nucleoside and Non-Nucleoside Derivatives against DNA and RNA Viruses, Including Coronaviruses” (International Journal of Molecular Sciences, 2023):

These compounds were tested on SARS-CoV-2 RG-2675 (South Africa) (assay: Cytopathic effect reduction, SARS-CoV-2 RG-2675 (South Africa) in Vero cells). Conditions: Severe acute respiratory syndrome coronavirus 2, Vero, read-out: Antiviral Activity (EC50) RG-2675 (South Africa).
Assay type: cell-based

Compound	EC50 [µM]
COc1ccc(C(OC[C@H]2O[C@@H](n3ccc4nc5cc(O)ccc5n4c3=O)C[C@@H]2O)(c2ccccc2)c2ccc(OC)cc2)cc1 [Compound 3a, 2-((2R,4S,5R)-5-((bis(4-methoxyphenyl)(phenyl)methoxy)methyl)-4-hydroxytetrahydrofuran-2-yl)-7-hydroxybenzo[4,5]imidazo[1,2-c]pyrimidin-1(2H)-one]	9.1 ± 0.62
CC(C)C(=O)OC[C@H]1O[C@@H](n2ccc(NO)nc2=O)[C@H](O)[C@@H]1O [Molnupiravir]	5.18 ± 0.26
CCC(CC)COC(=O)[C@H](C)N[P@](=O)(OC[C@H]1O[C@@](C#N)(c2ccc3c(N)ncnn23)[C@H](O)[C@@H]1O)Oc1ccccc1 [Remdesivir, reference compound]	1.31 ± 0.68
